pIC50: −log10 of the molar value.
target: T1, human glucocorticoid receptor (GR) complex (Homo sapiens, UniProt P04150); assay: Glucocorticoid Receptor Competitive Binding Assay (fluorescence polarization); conditions: competition with TAMRA-labeled dexamethasone; potent activity
T1 construct: made in house; host or cells: insect expression system (baculovirus lysate)
T1 sequence (P04150 1-777): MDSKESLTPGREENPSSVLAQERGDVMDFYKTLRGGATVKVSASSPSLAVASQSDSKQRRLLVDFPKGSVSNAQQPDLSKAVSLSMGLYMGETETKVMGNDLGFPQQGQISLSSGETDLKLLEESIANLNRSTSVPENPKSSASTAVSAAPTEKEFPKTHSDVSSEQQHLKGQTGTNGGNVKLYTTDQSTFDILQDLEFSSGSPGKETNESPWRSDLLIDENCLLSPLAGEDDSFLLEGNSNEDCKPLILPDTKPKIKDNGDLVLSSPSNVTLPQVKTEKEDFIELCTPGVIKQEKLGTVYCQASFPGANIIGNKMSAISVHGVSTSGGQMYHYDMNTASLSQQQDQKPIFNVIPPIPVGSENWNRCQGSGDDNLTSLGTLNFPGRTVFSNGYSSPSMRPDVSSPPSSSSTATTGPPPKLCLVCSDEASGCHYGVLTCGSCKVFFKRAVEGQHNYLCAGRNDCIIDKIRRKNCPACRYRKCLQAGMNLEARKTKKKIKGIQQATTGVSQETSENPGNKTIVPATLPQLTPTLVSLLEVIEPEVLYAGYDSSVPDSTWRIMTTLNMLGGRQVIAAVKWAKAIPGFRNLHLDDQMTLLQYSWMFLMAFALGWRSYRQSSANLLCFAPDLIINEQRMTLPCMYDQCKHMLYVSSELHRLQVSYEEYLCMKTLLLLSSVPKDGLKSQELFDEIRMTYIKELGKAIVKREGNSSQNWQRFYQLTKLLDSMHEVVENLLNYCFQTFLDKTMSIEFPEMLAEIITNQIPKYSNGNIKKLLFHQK
Procedure: Compounds of the invention were evaluated for binding to the steroid receptor by a fluorescence polarization competitive binding assay. Detailed descriptions for preparation of recombinant glucocorticoid receptor (GR) complex used in the assay is described in U.S. Patent Application Publication No. US 2003/0017503, filed May 20, 2002, and incorporated herein by reference in its entirety. Preparation of the tetramethylrhodamine (TAMRA)-labeled dexamethasone probe was accomplished using a standard literature procedure (M. Pons et al., J. Steroid Biochem., 1985, 22, pp. 267-273).
This assay uses fluorescence polarization (FP) to quantitate the ability of test compounds to compete with tetramethylrhodamine (TAMRA)-labeled dexamethasone for binding to a human glucocorticoid receptor (GR) complex prepared from an insect expression system. The assay buffer was: 10 mM TES, 50 mM KCl, 20 mM Na2MoO4.2H2O, 1.5 mM EDTA, 0.04% w/v CHAPS, 10% v/v glycerol, 1 mM dithiothreitol, pH 7.4. Test compounds were dissolved to 1 mM in neat DMSO and then further diluted to 10× assay concentration in assay buffer supplemented with 10% v/v DMSO. Test compounds were serially diluted at 10× assay concentrations in 10% DMSO-containing buffer in 96-well polypropylene plates. Binding reaction mixtures were prepared in 96-well black Dynex microtiter plates by sequential addition of the following assay components to each well: 15 μL of 10× test compound solution, 85 μL of GR-containing baculovirus lysate diluted 1:170 in assay buffer, and 50 μL of 15 nM TAMRA-labeled dexamethasone. Positive controls were reaction mixtures containing no test compound; negative controls (blanks) were reaction mixtures containing 0.7 μM to 2 μM dexamethasone. The binding reactions were incubated for 1 hour at room temperature and then read for fluorescence polarization in the LJL Analyst set to 550 nm excitation and 580 nm emission, with the Rhodamine 561 dichroic mirror installed. IC50 values were determined by iterative non-linear curve fitting of the FP signal data to a 4-parameter logistic equation.

| Compound | pIC50 |
| --- | --- |
| CC[C@@H](Cn1ccc2cc(C(=O)OC)ccc21)NS(=O)(=O)c1c(C)cc(C)cc1C [1-[(S)-2-(2,4,6-Trimethylbenzenesulfonylamino)butyl]-1H-indole-5-carboxylic acid methyl ester] | ≥ 7.00 |
| CC[C@@H](Cn1cc(C(N)=O)c2cc(F)ccc21)NS(=O)(=O)c1c(Cl)cc(Br)cc1Cl [1-[(S)-2-(4-Bromo-2,6-dichlorobenzenesulfonylamino)butyl]-5-fluoro-1H-indole-3-carboxylic acid amide] | ≥ 7.00 |
| CCC(Cn1cc(C)c2ccccc21)NS(=O)(=O)c1c(Cl)cc(Cl)cc1Cl (centres unmarked) [2,4,6-Trichloro-N-[1-(3-methylindol-1-ylmethyl)propyl]benzenesulfonamide] | ≥ 7.00 |
| Cc1ccc2c(c1)CCCN2CC(NS(=O)(=O)c1c(Cl)cc(Cl)cc1Cl)C(C)C (centres unmarked) [2,4,6-Trichloro-N-[2-methyl-1-(6-methyl-3,4-dihydro-2H-quinolin-1-ylmethyl)propyl]benzenesulfonamide] | ≥ 7.00 |
| CCC(Cn1cc(C)c2ccccc21)NS(=O)(=O)c1c(C)cc(C)cc1C (centres unmarked) [2,4,6-Trimethyl-N-[1-(3-methylindol-1-ylmethyl)propyl]benzenesulfonamide] | ≥ 7.00 |
| CC[C@@H](Cc1cccc2c1ccn2C)NS(=O)(=O)c1c(C)cc(C)cc1C [2,4,6-Trimethyl-N—[(S)-1-(1-methyl-1H-indol-4-ylmethyl)propyl]benzenesulfonamide] | ≥ 7.00 |
| CC[C@@H](Cc1ccc2ccn(C)c2c1)NS(=O)(=O)c1c(C)cc(C)cc1C [2,4,6-Trimethyl-N—[(S)-1-(1-methyl-1H-indol-6-ylmethyl)propyl]benzenesulfonamide] | ≥ 7.00 |
| CC[C@@H](Cc1cccc2ccn(C)c12)NS(=O)(=O)c1c(C)cc(C)cc1C [2,4,6-Trimethyl-N—[(S)-1-(1-methyl-1H-indol-7-ylmethyl)propyl]benzenesulfonamide] | ≥ 7.00 |
| CC[C@@H](Cn1cc(C)c2ccccc21)NS(=O)(=O)c1c(C)cc(C)cc1C [2,4,6-Trimethyl-N—[(S)-1-(3-methylindol-1-ylmethyl)propyl]benzenesulfonamide] | ≥ 7.00 |
| CC[C@@H](Cn1cc(-c2ccc(C)cc2)c2ccccc21)NS(=O)(=O)c1c(C)cc(C)cc1C [2,4,6-Trimethyl-N—[(S)-1-(3-p-tolylindol-1-ylmethyl)propyl]benzenesulfonamide] | ≥ 7.00 |
| CC[C@@H](Cn1cc(-c2cccnc2)c2ccccc21)NS(=O)(=O)c1c(C)cc(C)cc1C [2,4,6-Trimethyl-N—[(S)-1-(3-pyridin-3-ylindol-1-ylmethyl)propyl]benzenesulfonamide] | ≥ 7.00 |
| Cc1cc(C)c(S(=O)(=O)NC(Cn2cc(C)c3ccccc32)C(C)C)c([N+](=O)[O-])c1 (centres unmarked) [2,4-Dimethyl-N-[2-methyl-1-(3-methylindol-1-ylmethyl)propyl]-6-nitrobenzenesulfonamide] | ≥ 7.00 |
| CC[C@@H](Cn1cc(C)c2ccccc21)NS(=O)(=O)c1c(C)cc(C)cc1[N+](=O)[O-] [2,4-Dimethyl-N—[(S)-1-(3-methylindol-1-ylmethyl)propyl]-6-nitrobenzenesulfonamide] | ≥ 7.00 |
| Cc1cc(C)c(S(=O)(=O)N[C@@H](C)Cn2cc(C)c3ccccc32)c([N+](=O)[O-])c1 [2,4-Dimethyl-N—[(S)-1-methyl-2-(3-methylindol-1-yl)-ethyl]-6-nitrobenzenesulfonamide] | ≥ 7.00 |
| CC(C)C(Cn1ccc2ccccc21)NS(=O)(=O)c1c(N)cc(Cl)cc1Cl (centres unmarked) [2-Amino-4,6-dichloro-N-(1-indol-1-ylmethyl-2-methylpropyl)benzenesulfonamide] | ≥ 7.00 |
| CCC(Cn1cc(C)c2ccccc21)NS(=O)(=O)c1c(N)cc(Cl)cc1Cl (centres unmarked) [2-Amino-4,6-dichloro-N-[1-(3-methylindol-1-ylmethyl)propyl]benzenesulfonamide] | ≥ 7.00 |
| Cc1cn(CC(NS(=O)(=O)c2c(N)cc(Cl)cc2Cl)C(C)C)c2ccccc12 (centres unmarked) [2-Amino-4,6-dichloro-N-[2-methyl-1-(3-methylindol-1-ylmethyl)propyl]benzenesulfonamide] | ≥ 7.00 |

From patent US20100317863A1, “Glucocorticoid Mimetics, Methods of Making Them, Pharmaceutical Compositions and Uses Thereof” (BOEHRINGER INGELHEIM INTERNATIONAL GMBH, priority 2007, published 2010)
